Results taken from PubChem BioAssay (NCI).
Where “and” joins values, the source holds several entries; their conditions need not be identical. Equal values may be shown once.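 The compound was tested at five concentrations on cells cultured in 96-well plates, with a 48-hour exposure period. GI50 marks 50% less growth. TGI: total growth inhibition.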

Key:
Assay in all cases: NCI-60 cell line screen, 48 h
HL-60(TB) leukemia = test system: HL-60(TB) leukemia
HOP-62 NSCLC = test system: HOP-62 NSCLC
MALME-3M melanoma = test system: MALME-3M melanoma
NCI-H23 lung = test system: NCI-H23 lung
SK-MEL-5 melanoma = test system: SK-MEL-5 melanoma
HCC-2998 colon = test system: HCC-2998 colon
HCT-116 colon = test system: HCT-116 colon
MCF7 breast = test system: MCF7 breast
OVCAR-4 ovarian = test system: OVCAR-4 ovarian
IGROV1 ovarian = test system: IGROV1 ovarian

Structure (SMILES) | TGI (HL-60(TB) leukemia) | TGI (HOP-62 NSCLC) | TGI (MALME-3M melanoma) | TGI (NCI-H23 lung) | TGI (SK-MEL-5 melanoma) | TGI (HCC-2998 colon) | TGI (HCT-116 colon) | TGI (MCF7 breast) | TGI (OVCAR-4 ovarian) | TGI (IGROV1 ovarian) | GI50 (HL-60(TB) leukemia) [µM] | GI50 (HOP-62 NSCLC) [µM] | GI50 (MALME-3M melanoma) [µM] | GI50 (NCI-H23 lung) [µM] | GI50 (SK-MEL-5 melanoma) [µM] | GI50 (HCC-2998 colon) [µM] | GI50 (HCT-116 colon) [µM] | GI50 (MCF7 breast) [µM] | GI50 (OVCAR-4 ovarian) [µM] | GI50 (IGROV1 ovarian) [µM]
COc1ccccc1C1=C2C(=O)N(C)C(c3ccccc3OC)=C2C(=O)N1C | > 100 µM | 43.9 µM | > 100 µM | > 100 µM | > 100 µM | > 100 µM | > 100 µM | > 100 µM | > 100 µM | > 100 µM |  |  |  |  |  |  |  |  |  | 
CC1(C)NCCC[C@]2(C)[C@H]3C=CC4=C5C[C@](C)(CO)CC[C@]5(C)CC[C@@]4(C)[C@]3(C)CC[C@@H]12 | 7.02 µM | 5.16 µM | 8.01 µM | 12.5 µM | 4.94 µM | 23 µM | 10.6 µM | 14.5 µM | 20.8 µM | 14.8 µM | 2.63 | 2.3 | 2.64 | 3.15 | 2.14 | 10.1 | 2.73 | 3.14 | 5.63 | 4.08
O=C1C(Cl)=C(Oc2ccc([N+](=O)[O-])cc2)C(=O)c2c(O)ccc(O)c21 | 19.2 µM | > 100 µM | 40.1 µM | > 100 µM | > 100 µM | > 100 µM | > 100 µM | > 100 µM | > 100 µM | > 100 µM |  |  |  |  |  |  |  |  |  | 
O=[N+]([O-])c1ccc(-c2nc(N(CCO)CCO)c3ccccc3n2)o1 | 2.91 µM | 0.671 µM | 0.373 µM | 0.314 µM | 0.244 µM | 0.442 µM | 1.24 µM | 0.397 µM | 1.8 µM | 0.45 µM | 0.311 | 0.145 | 0.155 | 0.1 | 0.112 | 0.194 | 0.232 | 0.0419 | 0.208 | 0.151
O=C(/C=C/C=C/c1ccccc1)CCc1ccccc1 | 53 µM | > 100 µM | > 100 µM | > 100 µM | > 100 µM | > 100 µM | > 100 µM | > 100 µM | > 100 µM | > 100 µM |  |  |  |  |  |  |  |  |  | 
CCCCCNC(=O)[C@@H]1CCCN2C(=O)CC[C@H](NC(=O)[C@H](Cc3ccc(OP(=O)(O)O)cc3)NC(C)=O)C(=O)N12 | > 25 µM | > 25 µM | > 25 µM | > 25 µM | > 25 µM | > 25 µM | > 25 µM | > 25 µM | > 25 µM | > 25 µM | > 25 | > 25 | > 25 | > 25 | > 25 | > 25 | > 25 | > 25 | > 25 | > 25
O=C1/C(=C/c2ccc(O)c([N+](=O)[O-])c2)CCC/C1=C\c1ccc(O)c([N+](=O)[O-])c1 | 50 µM and 45.1 µM | 28 µM and > 100 µM | 26.3 µM and 26.2 µM | 32.6 µM and 25.2 µM | 17.4 µM and 31.5 µM | 16 µM | 18.7 µM and > 100 µM | 50 µM and 63 µM | 50 µM and > 100 µM | 17 µM and 28.5 µM | 16.7 | 25 | 12.3 | 8.14 | 14.7 |  | 26.8 | 15.8 | 4.34 | 15.2
FC(F)(F)c1cccc(COCCN2CCN(Cc3cccc(C(F)(F)F)c3)CC2)c1 | > 100 µM | 42.1 µM | 22.5 µM | 41.1 µM | 29.4 µM | 32.7 µM | 34.9 µM | 31.7 µM | 32.1 µM | 30.3 µM |  |  |  |  |  |  |  |  |  | 
CC([C@H]1CCC2C3CCC4C[C@@H](NC=O)CC[C@]4(C)C3CC[C@@]21C)N(C)C (some centres undefined) | 6.79 µM | 5.19 µM | 4.83 µM | 19 µM | 2.74 µM | 7.29 µM | 3.22 µM | 7.26 µM | 23.1 µM | 18.2 µM | 2.23 | 2.15 | 2.18 | 4.73 | 1.37 | 2.48 | 1.54 | 2.06 | 4.72 | 4.81
c1ccc(C(=NNc2nc3ccccc3o2)c2ccccn2)nc1 | 0.289 µM and 1.14 µM |  |  | 26.6 µM and 27.9 µM | 1.18 µM and 0.491 µM | 18.4 µM and 1.96 µM |  |  |  | 11.7 µM | 0.0323 | 0.0532 | 0.134 | 0.0617 | 0.163 | 0.0972 | 0.0296 | 0.0289 | 0.0128 | 0.0437
